Experimental findings from patent US10369130B2, “Antibacterial compounds” (AZIENDE CHIMICHE RIUNITE ANGELINI FRANCESCO A.C.R.A.F. …, priority 2014, dated 2019) are described below.

Structures can show the parent of a compound that is named as a salt.

What all share (assay type): biochemical
Details in all cases: single concentration (200, 100 or 50 μM), in duplicate, versus the positive control (vehicle)

Experiment [1] deals with T1, DNA gyrase (Escherichia coli, UniProt P0AES4+P0AES6).
T1 construct: purchased Inspiralis, UK
In words: DNA gyrase supercoiling assay (E. coli). The procedure: (§1) The above compounds were tested for the inhibition of the enzyme DNA gyrase in a gyrase supercoiling assay and for the inhibition of the enzyme topoisomerase IV in a decatenation assay, in both Gram positive and Gram negative bacteria, according to the following methods.
(§2) Both the assays were carried out according to a set-up method modified from the article to Blanche F, et al. “Differential Behaviors of Staphylococcus aureus and Escherichia coli Type II DNA Topoisomerases”, Antimicrob.
(§3) The compounds were screened at single concentration (200, 100 or 50 μM), in duplicate.
(§4) Ciprofloxacin and novobiocin were used as reference compounds, at single concentration of 200 and 50 μM, respectively.
(§5) DNA Gyrase Supercoiling Assay.
(§6) Reagents from S. aureus and E. coli Gyrase Supercoiling Assay kits (Inspiralis, UK) were used. A master mix with a total volume sufficient for the number of reactions to perform was prepared with the following reagents: 5× assay buffer, relaxed pBR322 substrate (0.5 μg/reaction), RNase-DNase free water. Aliquotes of this mix were dispensed in each tube, then 10× compound stock solutions or vehicle control (DMSO), were added to each reaction tube.
(§7) Reaction was started with E. Coli (2 U/reaction) or S. aureus (1 U/reaction) gyrase enzyme addition.
(§8) A sample added with an equal volume of dilution buffer was used as negative control (without enzyme).
(§9) The reaction tubes were gentle vortexed and incubated 30 minutes at 37° C. Each reaction was stopped by adding 30 μl of Stop Buffer and 30 μl chloroform/isoamyl alcohol (24/1), briefly vortexed for 5-10 seconds and centrifuged at 20000×g for 2 minutes. Samples were loaded onto 1% agarose gel and subjected to electrophoresis for 1 hour at 80V constant voltage in TAE (40 mM Tris-acetate, 2 mM EDTA).
(§10) Data acquisition and analysis. Treatment of relaxed pBR322 with DNA gyrase converted the relaxed topoisomers (DNAs of different linking number) to the supercoiled form of the plasmid, which migrates faster on an agarose gel. An upper band might also be visible, which consists of open-circular (nicked) DNA which is present in the relaxed substrate but co-migrates with some of the relaxed topoisomers.
(§11) Bands were visualized by ethidium bromide staining (dil 1:20000) for 30 minutes followed by destaining in distilled water for 10 minutes.
(§12) In order to evaluate the compounds activity on the enzyme, the bands of supercoiled DNAs in the gel were photographed by a digital imaging system ImageQuant LAS 4000 (GE Healthcare) according to manufacturer's instructions.
(§13) The fluorescent intensity of each band was analysed by ImageQuant TL software and it was expressed as volume (volume of the uncalibrated quantity of material in the image feature after subtraction of the background intensity by using rolling ball method).
(§14) Each band intensity was compared, as percentage, to vehicle sample band intensity, which served as positive control, on the same gel.
(§15) Inhibitory activity was expressed as percent of inhibition versus the positive control.

The target of experiment [2] is T2, Topoisomerase IV (Escherichia coli, UniProt P0AFI2+P20083).
T2 construct: purchased Inspiralis, UK
In words: Topoisomerase IV decatenation assay (E. coli). The procedure: as §1, §2, §3, §4
(§16) Topoisomerase IV Decatenation Assay
(§17) S. aureus and E. coli Topoisomerase IV decatenation kits (Inspiralis, UK) were used. A master mix with a total volume sufficient for the number of reactions to perform was prepared with the following reagents: 5× assay buffer (50 mM HEPES-KOH (pH 7.6), 100 mM potassium glutamate, 10 mM magnesium acetate, 10 mM DTT, 1 mM ATP, 50 μg/ml albumin), kDNA substrate (200 ng/reaction), RNase-DNase free water. Aliquots of this mix were dispensed in each tube, then 10× compound stock solutions or vehicle control (DMSO), were added in each reaction tube.
(§18) Reaction was started with Topoisomerase IV enzyme (0.5 U/reaction) addition.
as §8
(§19) The reaction tubes were gentle vortexed and incubated 30 minutes at 37° C. Each reaction was stopped by adding 30 μl of Stop Buffer and 30 μl of chloroform/isoamyl alcohol (24/1), briefly vortexed for 5-10 seconds and centrifuged at 20000×g for 2 minutes. Samples taken from the upper phase were loaded into 1% agarose gel and subjected to electrophoresis for 1 hour at 80V constant voltage in TAE (40 mM Tris-acetate, 2 mM EDTA).
(§20) Data acquisition and analysis. Due to the high molecular mass, kDNA could not enter an agarose gel under normal electrophoresis conditions, but remained in the wells. In the presence of Topo IV topoisomerase mini-circles (2.5 Kb) were released from kDNA by decatenation and were quickly and easily resolved in the gel at relatively high voltages.
as §11
(§21) For single concentration screening assay, in order to evaluate the compounds activity on the enzymes, the bands of decatenated DNAs in the gel were photographed by a digital imaging system ImageQuant LAS 4000 (GE Healthcare) according to manufacturer's instructions.
(§22) The fluorescent intensity of each band was analyzed by ImageQuant TL software and it was expressed as volume (volume of the uncalibrated quantity of material in the image feature after subtraction of the background intensity by using rolling ball method).
as §14, §15

Experiment [3] concerns the target T3, DNA gyrase (Staphylococcus aureus, UniProt P0A0K8+P20831).
T3 construct: purchased Inspiralis, UK
The experiment in a line: DNA gyrase supercoiling assay (S. aureus). As to the method: as §1, §2, §3, §4, §5, §6, §7, §8, §9, §10, §11, §12, §13, §14, §15

In experiment [4] the target is T4, Topoisomerase IV (Staphylococcus aureus, UniProt P0C1S7+P0C1U9).
T4 construct: purchased Inspiralis, UK
In words: Topoisomerase IV decatenation assay (S. aureus). As to the method: as §1, §2, §3, §4, §16, §17, §18, §8, §19, §20, §11, §21, §22, §14, §15

T1 sequence (P0AES4 whole entry, one chain of several): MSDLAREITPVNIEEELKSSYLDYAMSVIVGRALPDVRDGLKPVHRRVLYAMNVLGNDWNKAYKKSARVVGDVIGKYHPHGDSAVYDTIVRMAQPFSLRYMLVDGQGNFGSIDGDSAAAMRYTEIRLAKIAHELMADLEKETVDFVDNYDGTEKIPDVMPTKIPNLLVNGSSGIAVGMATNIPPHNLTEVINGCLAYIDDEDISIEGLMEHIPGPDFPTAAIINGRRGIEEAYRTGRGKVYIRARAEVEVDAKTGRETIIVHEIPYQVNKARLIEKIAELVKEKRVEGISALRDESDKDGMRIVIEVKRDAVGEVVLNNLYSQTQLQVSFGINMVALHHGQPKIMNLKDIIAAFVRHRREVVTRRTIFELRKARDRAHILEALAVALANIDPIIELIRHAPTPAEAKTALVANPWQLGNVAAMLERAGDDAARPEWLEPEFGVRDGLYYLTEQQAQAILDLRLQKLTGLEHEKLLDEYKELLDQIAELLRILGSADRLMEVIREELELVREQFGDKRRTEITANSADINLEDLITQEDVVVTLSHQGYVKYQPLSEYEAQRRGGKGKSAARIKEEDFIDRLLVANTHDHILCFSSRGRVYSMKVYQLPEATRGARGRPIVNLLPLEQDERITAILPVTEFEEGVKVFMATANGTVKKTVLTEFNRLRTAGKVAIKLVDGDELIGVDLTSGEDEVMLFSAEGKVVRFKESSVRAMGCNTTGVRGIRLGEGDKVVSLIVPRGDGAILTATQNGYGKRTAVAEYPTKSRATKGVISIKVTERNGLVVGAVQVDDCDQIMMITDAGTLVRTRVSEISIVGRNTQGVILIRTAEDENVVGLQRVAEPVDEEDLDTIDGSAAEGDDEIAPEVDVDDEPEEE
T3 sequence (P20831 whole entry): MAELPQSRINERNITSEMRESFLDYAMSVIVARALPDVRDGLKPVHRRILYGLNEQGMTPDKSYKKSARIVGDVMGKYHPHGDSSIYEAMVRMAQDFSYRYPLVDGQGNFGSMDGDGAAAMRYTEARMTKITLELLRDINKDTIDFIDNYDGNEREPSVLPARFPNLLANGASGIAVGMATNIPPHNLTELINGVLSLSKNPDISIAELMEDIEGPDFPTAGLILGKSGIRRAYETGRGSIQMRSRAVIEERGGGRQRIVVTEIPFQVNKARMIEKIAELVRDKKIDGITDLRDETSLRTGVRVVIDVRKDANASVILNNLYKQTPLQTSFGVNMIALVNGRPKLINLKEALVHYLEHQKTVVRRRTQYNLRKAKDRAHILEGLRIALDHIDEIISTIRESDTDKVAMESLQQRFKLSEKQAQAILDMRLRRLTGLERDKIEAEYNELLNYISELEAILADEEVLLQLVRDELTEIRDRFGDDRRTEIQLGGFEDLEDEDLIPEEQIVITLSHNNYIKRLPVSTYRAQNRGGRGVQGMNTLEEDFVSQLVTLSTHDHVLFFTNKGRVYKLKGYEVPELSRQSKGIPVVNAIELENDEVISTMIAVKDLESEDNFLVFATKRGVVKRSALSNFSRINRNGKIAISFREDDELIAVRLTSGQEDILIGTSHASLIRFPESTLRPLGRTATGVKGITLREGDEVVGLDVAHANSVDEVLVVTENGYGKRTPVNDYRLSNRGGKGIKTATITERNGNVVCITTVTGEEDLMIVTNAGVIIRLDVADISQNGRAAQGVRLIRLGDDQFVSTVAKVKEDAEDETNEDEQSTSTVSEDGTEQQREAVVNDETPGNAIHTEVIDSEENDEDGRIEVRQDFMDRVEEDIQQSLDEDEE
T3 sequence (P0A0K8 whole entry): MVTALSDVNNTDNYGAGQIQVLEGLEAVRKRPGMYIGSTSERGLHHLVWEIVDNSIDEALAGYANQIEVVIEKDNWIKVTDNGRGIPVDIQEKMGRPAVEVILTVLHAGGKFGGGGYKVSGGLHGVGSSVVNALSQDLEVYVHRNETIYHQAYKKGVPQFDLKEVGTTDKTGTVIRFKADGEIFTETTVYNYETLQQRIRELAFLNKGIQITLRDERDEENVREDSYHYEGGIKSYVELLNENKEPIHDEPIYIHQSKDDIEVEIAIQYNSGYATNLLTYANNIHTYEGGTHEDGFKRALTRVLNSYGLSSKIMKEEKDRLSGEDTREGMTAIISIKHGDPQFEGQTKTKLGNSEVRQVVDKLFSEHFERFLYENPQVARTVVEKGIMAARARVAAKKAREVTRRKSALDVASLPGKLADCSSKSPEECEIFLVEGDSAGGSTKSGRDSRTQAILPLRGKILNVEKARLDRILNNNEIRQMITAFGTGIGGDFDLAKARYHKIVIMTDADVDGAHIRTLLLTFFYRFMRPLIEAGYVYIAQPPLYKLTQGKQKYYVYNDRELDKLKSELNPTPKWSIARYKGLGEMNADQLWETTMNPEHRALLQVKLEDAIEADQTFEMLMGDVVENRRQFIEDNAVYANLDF
T2 sequence (P20083 whole entry): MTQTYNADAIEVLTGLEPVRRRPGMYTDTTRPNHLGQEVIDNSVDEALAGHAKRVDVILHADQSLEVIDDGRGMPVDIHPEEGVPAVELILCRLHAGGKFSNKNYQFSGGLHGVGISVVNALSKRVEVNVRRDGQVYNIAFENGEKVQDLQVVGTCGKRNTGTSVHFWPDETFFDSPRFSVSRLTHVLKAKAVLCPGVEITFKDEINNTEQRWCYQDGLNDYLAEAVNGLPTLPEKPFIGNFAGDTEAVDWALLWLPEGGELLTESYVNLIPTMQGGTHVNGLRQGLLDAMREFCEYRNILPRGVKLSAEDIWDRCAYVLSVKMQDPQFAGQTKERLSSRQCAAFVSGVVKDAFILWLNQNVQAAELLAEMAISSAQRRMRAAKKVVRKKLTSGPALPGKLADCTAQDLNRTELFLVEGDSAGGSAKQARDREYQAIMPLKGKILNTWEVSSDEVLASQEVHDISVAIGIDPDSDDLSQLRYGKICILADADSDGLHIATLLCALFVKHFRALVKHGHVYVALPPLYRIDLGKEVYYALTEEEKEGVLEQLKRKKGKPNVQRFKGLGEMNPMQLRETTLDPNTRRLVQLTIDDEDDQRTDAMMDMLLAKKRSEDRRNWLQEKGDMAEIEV
T2 sequence (P0AFI2 whole entry): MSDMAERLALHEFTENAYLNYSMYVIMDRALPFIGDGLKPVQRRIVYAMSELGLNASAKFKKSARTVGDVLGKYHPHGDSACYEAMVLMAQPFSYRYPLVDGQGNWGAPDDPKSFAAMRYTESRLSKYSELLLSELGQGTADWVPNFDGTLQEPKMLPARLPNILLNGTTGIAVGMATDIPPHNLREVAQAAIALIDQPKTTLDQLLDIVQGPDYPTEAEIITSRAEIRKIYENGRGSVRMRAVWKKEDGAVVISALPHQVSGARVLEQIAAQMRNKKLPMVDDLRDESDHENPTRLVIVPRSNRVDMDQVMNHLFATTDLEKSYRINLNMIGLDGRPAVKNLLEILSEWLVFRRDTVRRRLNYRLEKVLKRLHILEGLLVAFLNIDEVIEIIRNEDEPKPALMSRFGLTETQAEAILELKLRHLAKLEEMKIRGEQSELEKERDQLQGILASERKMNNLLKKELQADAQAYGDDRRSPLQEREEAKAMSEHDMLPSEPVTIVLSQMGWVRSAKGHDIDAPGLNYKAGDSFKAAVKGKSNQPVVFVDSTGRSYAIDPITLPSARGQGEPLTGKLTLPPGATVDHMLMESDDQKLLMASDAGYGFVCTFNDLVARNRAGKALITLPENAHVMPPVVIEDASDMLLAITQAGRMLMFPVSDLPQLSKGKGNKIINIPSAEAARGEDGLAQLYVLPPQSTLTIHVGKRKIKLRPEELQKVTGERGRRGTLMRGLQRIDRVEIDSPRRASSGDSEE

Take `O=C(NCCCN1CCN(c2nccc3ncccc23)CC1)c1cccnc1` [Compound 43, N-{3-[4-(1,6-naphthyridin-5-yl)piperazin-1-yl]propyl}pyridine-3-carboxamide hydrochloride]: the “% inhibition DNA gyrase” value on DNA gyrase [1] was “n/a (n/a = not active)”; at DNA gyrase [3], 100%. Also, the “% inhibition Topo IV” value at Topoisomerase IV [2] and on Topoisomerase IV [4] was “n/a (n/a = not active)” each time.

As to `Fc1ccc(F)c(CNCCCN2CCN(c3nccc4ccccc34)CC2)c1` [Compound 38, N-(2,5-difluorobenzyl)-3-[4-(isoquinolin-1-yl)piperazin-1-yl]propan-1-amine hydrochloride], the “% inhibition DNA gyrase” value on DNA gyrase [1] was “n/a (n/a = not active)”; on DNA gyrase [3], 63%. Moreover, the “% inhibition Topo IV” value on Topoisomerase IV [2] and at Topoisomerase IV [4] was “n/a (n/a = not active)” each time.

With `O=C(NCCCN1CCN(c2nccc3ccccc23)CC1)c1cnc2ccoc2c1` [Compound 31, N-{3-[4-(isoquinolin-1-yl)piperazin-1-yl]propyl}furo[3,2-b]pyridine-6-carboxamide hydrochloride], the “% inhibition DNA gyrase” value is on record as “n/a (n/a = not active)” at DNA gyrase [1] and 65% at DNA gyrase [3]. The “% inhibition Topo IV” value at Topoisomerase IV [2] and on Topoisomerase IV [4] was “n/a (n/a = not active)” each time.

Regarding `O=C(NCCCN1CCN(c2nccc3ccccc23)CC1)c1cc(F)ccc1F` [Compound 39, 2,5-difluoro-N-{3-[4-(isoquinolin-1-yl)piperazin-1-yl]propyl}benzamide hydrochloride], the “% inhibition DNA gyrase” value is 50% on DNA gyrase [1] and 74% on DNA gyrase [3]. Also, the “% inhibition Topo IV” value at Topoisomerase IV [2] and on Topoisomerase IV [4] was “n/a (n/a = not active)” in each case.

For the molecule `Cc1cc2ccccc2c(N2CCN(CCCNC(=O)c3cccnc3)CC2)n1` [Compound 21, N-{3-[4-(3-methylisoquinolin-1-yl)piperazin-1-yl]propyl}pyridine-3-carboxamide hydrochloride], the “% inhibition DNA gyrase” value is “n/a (n/a = not active)” on DNA gyrase [1] and 67% on DNA gyrase [3]. Besides, the “% inhibition Topo IV” value at Topoisomerase IV [2] and at Topoisomerase IV [4] was “n/a (n/a = not active)” in each case.

On to `O=C(O)C1CN(c2nccc3ccccc23)CCN1CCCNc1cc(=O)oc2ccccc12` (stereo not drawn) [Compound 82, 4-(isoquinolin-1-yl)-1-{3-[(2-oxo-2H-chromen-4-yl)amino]propyl}piperazine-2-carboxylic acid hydrochloride], for which the “% inhibition DNA gyrase” value stood at 85% on DNA gyrase [1] and 82% on DNA gyrase [3]. In addition, the “% inhibition Topo IV” value on Topoisomerase IV [2] and at Topoisomerase IV [4] was “n/a (n/a = not active)” throughout.

As for `O=C(NCCN1CCN(c2nccc3ccccc23)CC1)c1ccccc1` [Compound 4, N-{2-[4-(isoquinolin-1-yl)piperazin-1-yl]ethyl}benzamide hydrochloride], the “% inhibition DNA gyrase” value at DNA gyrase [1] is recorded as “n/a (n/a = not active)”; at DNA gyrase [3] it was 84%. Further, the “% inhibition Topo IV” value at Topoisomerase IV [2] is recorded as 53%; at Topoisomerase IV [4] it was “n/a (n/a = not active)”.

As for `CN(CCCN1CCN(c2nccc3ccccc23)CC1)c1cc(=O)oc2ccccc12` [Compound 53, 4-[{3-[4-(isoquinolin-1-yl)piperazin-1-yl]propyl}(methyl)amino]-2H-chromen-2-one hydrochloride], the entries for the “% inhibition DNA gyrase” value at DNA gyrase [1] and on DNA gyrase [3] were 64% and 57%, respectively. In addition, the “% inhibition Topo IV” value at Topoisomerase IV [2] and on Topoisomerase IV [4] was “n/a (n/a = not active)” each time.

For the molecule `O=C(NCCN1CCN(c2nccc3ccccc23)CC1)c1cc(=O)oc2ccccc12` [Compound 75, N-{2-[4-(isoquinolin-1-yl)piperazin-1-yl]ethyl}-2-oxo-2H-chromene-4-carboxamide hydrochloride], the “% inhibition DNA gyrase” value is listed as 69% on DNA gyrase [1] and 61% at DNA gyrase [3]. The “% inhibition Topo IV” value at Topoisomerase IV [2] and on Topoisomerase IV [4] was “n/a (n/a = not active)” each time.

With `O=c1cc(NCCCN2CCN(c3nccc4ccc(F)cc34)CC2)c2ccc(O)cc2o1` [Compound 107, 4-({3-[4-(7-fluoroisoquinolin-1-yl)piperazin-1-yl]propyl}amino)-7-hydroxy-2H-chromen-2-one hydrochloride], the entries for the “% inhibition DNA gyrase” value on DNA gyrase [1] and on DNA gyrase [3] were 92% and 74%, respectively. Also, the “% inhibition Topo IV” value on Topoisomerase IV [2] and at Topoisomerase IV [4] was “n/a (n/a = not active)” throughout.

For the molecule `O=C1CN(c2nccc3ccccc23)CCN1CCCNc1cc(=O)oc2ccccc12` [Compound 71, 4-(isoquinolin-1-yl)-1-{3-[(2-oxo-2H-chromen-4-yl)amino]propyl}piperazin-2-one hydrochloride], the “% inhibition DNA gyrase” value at DNA gyrase [1] is reported as 56%; at DNA gyrase [3] it was “n/a (n/a = not active)”. In addition, the “% inhibition Topo IV” value on Topoisomerase IV [2] and at Topoisomerase IV [4] was “n/a (n/a = not active)” in each case.

`O=C(NCCCN1CCN(c2nccc3ccccc23)CC1)c1cc2ccoc2cn1` [Compound 42, N-{3-[4-(isoquinolin-1-yl)piperazin-1-yl]propyl}furo[2,3-c]pyridine-5-carboxamide hydrochloride]: the entries for the “% inhibition DNA gyrase” value at DNA gyrase [1] and on DNA gyrase [3] were “n/a (n/a = not active)” and 84%, respectively. In addition, the “% inhibition Topo IV” value at Topoisomerase IV [2] and at Topoisomerase IV [4] was “n/a (n/a = not active)” in each case.

Regarding `O=c1cc(NCCCN2CCN(c3nccc4ccccc34)CC2)cc(-c2ccccc2)o1` [Compound 60, 4-({3-[4-(isoquinolin-1-yl)piperazin-1-yl]propyl}amino)-6-phenyl-2H-pyran-2-one hydrochloride], the figures for the “% inhibition DNA gyrase” value at DNA gyrase [1] and at DNA gyrase [3] were 100% and 89%, respectively. Further, the “% inhibition Topo IV” value on Topoisomerase IV [2] and on Topoisomerase IV [4] was “n/a (n/a = not active)” throughout.

Regarding `O=c1cc(OCCCN2CCN(c3nccc4ccccc34)CC2)c2ccccc2o1` [Compound 70, 4-{3-[4-(isoquinolin-1-yl)piperazin-1-yl]propoxy}-2H-chromen-2-one hydrochloride], the “% inhibition DNA gyrase” value was 86% at DNA gyrase [1] and 75% at DNA gyrase [3]. The “% inhibition Topo IV” value at Topoisomerase IV [2] and on Topoisomerase IV [4] was “n/a (n/a = not active)” each time.

Turning to `COc1ccc2c(NCCCN3CCN(c4nccc5ccccc45)CC3)cc(=O)oc2c1` [Compound 85, 4-({3-[4-(isoquinolin-1-yl)piperazin-1-yl]propyl}amino)-7-methoxy-2H-chromen-2-one hydrochloride], the entries for the “% inhibition DNA gyrase” value on DNA gyrase [1] and on DNA gyrase [3] were 78% and 86%, respectively. Also, the “% inhibition Topo IV” value at Topoisomerase IV [2] and on Topoisomerase IV [4] was “n/a (n/a = not active)” throughout.
